Experimental findings from patent US10730911B2, “Backbone-cyclized peptidomimetics with GLP-1R modulating activity” (POLYPHOR AG, priority 2015, dated 2020) are described below.

Where a SMILES comes first, the peptide text is derived from it. [ ]: non-standard residue; d: D form. Trp(5-OH) = N[C@@H](Cc1c[nH]c2ccc(O)cc12)C(=O)O; His(π-Bn) = N[C@@H](Cc1cncn1Cc1ccccc1)C(=O)O; Phe(4-NH2) = Nc1ccc(C[C@H](N)C(=O)O)cc1; 4Pal = N[C@@H](Cc1ccncc1)C(=O)O; Ac6c = NC1(C(=O)O)CCCCC1

This test deals with T1, human glucagon-like peptide-1 receptor (GLP-1R) (Homo sapiens, UniProt P43220).
T1 construct: host or cells: CHO chAMPion cells
T1 sequence (P43220 24-463): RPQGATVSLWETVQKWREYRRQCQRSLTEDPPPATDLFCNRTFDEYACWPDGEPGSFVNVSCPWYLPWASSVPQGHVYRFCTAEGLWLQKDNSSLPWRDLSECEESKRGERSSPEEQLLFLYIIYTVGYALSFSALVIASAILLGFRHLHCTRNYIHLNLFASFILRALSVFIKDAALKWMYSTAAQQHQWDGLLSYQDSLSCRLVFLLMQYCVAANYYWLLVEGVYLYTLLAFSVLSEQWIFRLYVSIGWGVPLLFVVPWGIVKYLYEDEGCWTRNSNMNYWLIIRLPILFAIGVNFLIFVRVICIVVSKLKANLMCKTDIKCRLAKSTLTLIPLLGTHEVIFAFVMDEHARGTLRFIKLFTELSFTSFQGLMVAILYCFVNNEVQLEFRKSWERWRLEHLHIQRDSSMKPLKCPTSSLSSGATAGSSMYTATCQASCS
The test is described as follows: Human GLP-1 receptor cell-based assay (flash luminescence, Target Activation phase). The following applies: CHO chAMPion cells stably co-expressing human GLP-1R, Photina and cAMP-activated calcium channel; agonist activity; normalization by forskolin at 10 μM; ^a) values from single experiment; read-out: EC50 (μM) Target Activation (TA). The source says: CHO chAMPion cells (Axxam SpA; S. Corazza, Assay Drug Dev. Technol. 2009, 7, 304-307) stably co-expressing the human glucagon-like peptide-1 receptor (GLP-1R), the Ca^2+-sensitive photoprotein PHOTINA® (S. Bovolenta et al., J. Biomol. Screen. 2007, 12, 694-704) and a mutated cAMP-activated calcium ion channel (WO2004/083803 A2) were used to monitor GLP-1R signaling after stimulation with an agonist. Activation of the Gas-coupled GPCR GLP-1R was monitored by measuring the flash luminescence of the Ca^2+-sensitive photoprotein as reporter system with FLIPR^TETRA screening instrumentation (Molecular Devices) upgraded with an ICCD Camera (MDC). For data quality check and data analysis the Genedata SCREENER® software was used.
The reference agonist GLP-1 (glucagon-like peptide-1 amide fragment 7-36) and forskolin were purchased from Sigma (cat. G8147 and F6886, respectively) and prepared according to each ligand's specifications. All handling of ligands were done to ensure proper control throughout the experiments. The steps of the implemented workflow and data analysis are mainly as follows:
Stably transfected chAMPion cells are seeded 10000 c/w in 384 MTP in Dulbecco's MEM/nutrient mix F12 (BioWhittaker cat. BE04-687F/U1; 500 mL) supplemented with sodium pyruvate (BioWhittaker cat. BE13-115E; 5 mL of 100 mM solution), HEPES (BioWhittaker cat. BE17-737E; 6.5 mL of 1M solution), sodium bicarbonate (BioWhittaker cat. BE17-613E; 25 mL of 7.5% solution), fetal bovine serum (Euroclone cat. ECS 0180L; 50 mL), penicillin-streptomycin (BioWhittaker cat. DE17-602E; 5 mL of 100×solution), 1 mg/mL G418 (selection antibiotic for GLP-1R) and 200 μg/mL hygromycin in 25 μL/well for 24 hours. On the day of the experiment, plates are removed from the incubator, freed from the growth medium, equilibrated at room temperature for 1 h, loaded with 30 μl/well of Ca^2+ free Tyrode's buffer containing 20 μM coelentrazine and 500 μM IBMX, and incubated for 4 hours at room temperature.
All compounds were tested at 8 concentrations, starting from 50 μM in quadruplicate, intra-plate (dilution step 1:2.15) to determine EC50 values. After incubation, the volume in all the wells is flattened to 20 αL by aspiration with a CYBIO®-VARIO pipettor. First Injection (10 μL of test compounds in Ca^2+ free Tyrode's buffer, DMSO 0.5% v/v and BSA 0.01%; or 10 μL of reference compounds GLP-1 or forskolin in Ca′ free Tyrode's buffer, DMSO 0.5% v/v and BSA 0.01%) is performed by the FLIPR^TETRA and the kinetic response is optionally monitored over a period of 60 seconds. Incubation for 30 minutes at room temperature is followed by the Second Injection (Tyrode's buffer+10 mM CaCl2)) and the kinetic response is monitored over a period of 60 seconds.
The kinetic response is divided into two distinct phases: monitoring the kinetic response after the First Injection, termed Compound Addition (CA), and monitoring the kinetic response after the Second Injection of 10 mM CaCl2, termed Target Activation (TA). Agonist activity of compounds is evaluated in the Target Activation (TA) phase and it is based on normalization to TA activation by forskolin at 10 μM or GLP-1 at 3.16 nM (EC100)
A good correlation was observed between EC50, data normalized by forskolin and by GLP-1.
Regarding `COc1ccc(C[C@@H]2NC(=O)[C@H](CC(C)C)NC(=O)[C@H](CCC(=O)O)NC(=O)[C@H](Cc3ccccc3)NC(=O)C3(CCCCC3)NC(=O)[C@H]3CCCN3C(=O)[C@H](Cc3ccc(O)cc3)NC(=O)[C@H](CCC(=O)O)NC(=O)[C@H](Cc3c[nH]c4ccccc34)NC(=O)[C@H](C)NC2=O)cc1` [compound 29, cyclo(-Phe-Glu-Leu-Tyr(Me)-Ala-Trp-Glu-Tyr-^DPro-Chx-)] (cyclo(FELY(Me)AWEY[dP][Ac6c])), the EC50 is 0.62 µM.

Take `C[C@@H]1NC(=O)[C@H](Cc2ccc(O)cc2)NC(=O)[C@H](CCC(N)=O)NC(=O)[C@H](Cc2c[nH]c3ccccc23)NC(=O)[C@H](Cc2ccccc2)NC(=O)C2(CCCCC2)NC(=O)[C@H]2CCCN2C(=O)[C@H](Cc2ccc(N)cc2)NC(=O)[C@H](CCC(=O)O)NC(=O)[C@H](Cc2c[nH]c3ccccc23)NC1=O` [compound 30, cyclo(-Phe-Trp-Gln-Tyr-Ala-Trp-Glu-Phe(4NH2)-^DPro-Chx-)] (cyclo(FWQYAWE[Phe(4-NH2)][dP][Ac6c])): the EC50 is 0.63 µM. For `CC(C)C[C@@H]1NC(=O)[C@H](CCC(=O)O)NC(=O)[C@H](Cc2ccccc2)NC(=O)C2(CCCCC2)NC(=O)[C@H]2CCCN2C(=O)[C@H](Cc2ccccc2)NC(=O)[C@H](CCC(=O)O)NC(=O)[C@H](Cc2c[nH]c3ccccc23)NC(=O)[C@H](C)NC(=O)[C@H](Cc2ccc(O)cc2)NC1=O` [compound 31, cyclo(-Phe-Glu-Leu-Tyr-Ala-Trp-Glu-Phe-^DPro-Chx-)] (cyclo(FELYAWEF[dP][Ac6c])) the value was 0.68 µM; for `COc1ccc(C[C@@H]2NC(=O)[C@H](Cc3ccccc3)NC(=O)C3(CCCCC3)NC(=O)[C@H]3CCCN3C(=O)[C@H](Cc3ccc(O)cc3)NC(=O)[C@H](CCC(=O)O)NC(=O)[C@H](Cc3c[nH]c4ccccc34)NC(=O)[C@H](C)NC(=O)[C@H](Cc3ccc(O)cc3)NC(=O)[C@H](CCC(N)=O)NC2=O)cc1` [compound 32, cyclo(-Phe-Tyr(Me)-Gln-Tyr-Ala-Trp-Glu-Tyr-^DPro-Chx-)] (cyclo(FY(Me)QYAWEY[dP][Ac6c])), 0.92 ± 0.31 µM. Next, `C[C@@H]1NC(=O)[C@H](Cc2ccc(O)cc2)NC(=O)[C@H](CCC(N)=O)NC(=O)[C@H](Cc2ccncc2)NC(=O)[C@H](Cc2ccccc2)NC(=O)C2(CCCCC2)NC(=O)[C@H]2CCCN2C(=O)[C@H](Cc2ccc(O)cc2)NC(=O)[C@H](CCC(=O)O)NC(=O)[C@H](Cc2c[nH]c3ccccc23)NC1=O` [compound 33, cyclo(-Phe-4Pal-Gln-Tyr-Ala-Trp-Glu-Tyr-^DPro-Chx-)] (cyclo(F[4Pal]QYAWEY[dP][Ac6c])): 0.99 ± 0.37 µM; `COc1ccc(C[C@@H]2NC(=O)[C@H](CC(C)C)NC(=O)[C@H](CCC(=O)O)NC(=O)[C@H](Cc3ccccc3)NC(=O)C3(CCCCC3)NC(=O)[C@H]3CCCN3C(=O)[C@H](Cc3ccc(OC)cc3)NC(=O)[C@H](CCC(=O)O)NC(=O)[C@H](Cc3c[nH]c4ccccc34)NC(=O)[C@H](C)NC2=O)cc1` [compound 34, cyclo(-Phe-Glu-Leu-Tyr(Me)-Ala-Trp-Glu-Tyr(Me)-^DPro-Chx-)] (cyclo(FELY(Me)AWEY(Me)[dP][Ac6c])): 0.73 µM. Next, `C[C@@H]1NC(=O)[C@H](Cc2ccc(O)cc2)NC(=O)[C@H](CCC(N)=O)NC(=O)[C@H](Cc2c[nH]c3ccc(O)cc23)NC(=O)[C@H](Cc2ccccc2)NC(=O)C2(CCCCC2)NC(=O)[C@H]2CCCN2C(=O)[C@H](Cc2ccc(O)cc2)NC(=O)[C@H](CCC(=O)O)NC(=O)[C@H](Cc2c[nH]c3ccccc23)NC1=O` [compound 35, cyclo(-Phe-Trp(5OH)-Gln-Tyr-Ala-Trp-Glu-Tyr-^DPro-Chx-)] (cyclo(F[Trp(5-OH)]QYAWEY[dP][Ac6c])): 1.1 ± 0.5 µM; `CC(C)C[C@@H]1NC(=O)[C@H](CCC(=O)O)NC(=O)[C@H](Cc2ccccc2)NC(=O)C2(CCCCC2)NC(=O)[C@H]2CCCN2C(=O)[C@H](Cc2cncn2Cc2ccccc2)NC(=O)[C@H](CCC(=O)O)NC(=O)[C@H](Cc2c[nH]c3ccccc23)NC(=O)[C@H](C)NC(=O)[C@H](Cc2ccc(O)cc2)NC1=O` [compound 36, cyclo(-Phe-Glu-Leu-Tyr-Ala-Trp-Glu-His(Bn)-^DPro-Chx-)] (cyclo(FELYAWE[His(π-Bn)][dP][Ac6c])): 0.85 µM.
